This is an account of results in US8119128B2, “Antibodies that bind urokinase-type plasminogen activator and epitopes therefor” (The Regents of the University of Colorado, a body corporate, priority 2004, dated 2012).

Common to all, as to assay type: cell-based, mouse
One test has as its system integrins. As to the kind of experiment: RGD or RGE peptide added to neutrophil cultures containing uPA and LPS. Conditions: LPS 10 ng/ml, scuPA 10 nM, peptide 50 μM, 4 hours; FIG. 7. On the procedure:
(§1) Isolation of neutrophils. Neutrophils were purified from bone marrow cell suspensions as previously described by Abraham, et al., J Immunol 170:5644 (2003), Asehnoune, et al., J Immunol 172:2522 (2004), and Strassheim, et al., Am J Physiol Cell Physiol 286:C683 (2004). Briefly summarized, to obtain the bone marrow cell suspension, the femur and tibia of a mouse were flushed with 5 ml RPMI 1640/penicillin/streptomycin and the cells passed through a glass wool column, and pelleted by centrifugation at 1000 rpm for 10 minutes. The cell pellets were resuspended in 0.3% FCS/PBS and then incubated with 20 μl of primary antibodies specific for cell surface markers F4/80, CD4, CD45R, CD5, and TER19 for 15 minutes, rotating at 4° C. This custom cocktail (Stem Cell Technologies, Vancouver, British Columbia) is specific for T and B cells, RBC, monocytes and macrophages. Anti-biotin tetrameric antibody complexes (100 μl) were then added, and the cells incubated for 15 minutes, rotating at 4° C. Following this, 60 μl of colloidal magnetic dextran iron particles was added to the suspension and incubated for 15 minutes, rotating at 4° C. The entire cell suspension was then placed into a column, surrounded by a magnet. The T cells, B cells, RBC, monocytes and macrophages were captured in the column, allowing the neutrophils to pass through by negative selection methods. Neutrophil purity, as determined by Wright's stained cytospin preparations, was greater than 97%. Cell viability, as determined by trypan blue exclusion, was consistently greater than 98%.
(§2) Real time quantitative RT-PCR. Quantitative RT-PCR to measure neutrophil cytokine expression was performed as previously described by Abraham, et al., J Immunol 170:5644 (2003), and Park, et al., Am J Physiol Cell Physiol 284:C870 (2003). […] For each mRNA detected, a fluorogenic probe and two primers (forward and reverse) for PCR were synthesized (Applied Biosystems, Foster City, Calif.). […]

Test [1] has as its system LPS stimulated neutrophils. Kind of test: LPS-induced cytokine mRNA expression in neutrophils, quantitative RT-PCR. Conditions: LPS 10 ng/ml, protein 10 nM, 4 hours; FIG. 1-4. On the procedure:
Isolation of neutrophils. Neutrophils were purified from bone marrow cell suspensions as previously described by Abraham, et al., J Immunol 170:5644 (2003), Asehnoune, et al., J Immunol 172:2522 (2004), and Strassheim, et al., Am J Physiol Cell Physiol 286:C683 (2004). Briefly summarized, to obtain the bone marrow cell suspension, the femur and tibia of a mouse were flushed with 5 ml RPMI 1640/penicillin/streptomycin and the cells passed through a glass wool column, and pelleted by centrifugation at 1000 rpm for 10 minutes. […] Neutrophil purity, as determined by Wright's stained cytospin preparations, was greater than 97%. Cell viability, as determined by trypan blue exclusion, was consistently greater than 98%.
as §2
All reagents used in the one step RT-PCR reactions were purchased from Applied Biosystems. […] The amount of cytokine mRNA was determined from a standard curve with 10 fold dilutions of known amounts of target RNA for each primer and probe set. […]

Test [2] deals with LPS stimulated neutrophils. Kind of test: Cytokine ELISA of culture supernatants of LPS stimulated neutrophils. Conditions: LPS 10 ng/ml, protein 10 nM, 4 hours, FIG. 5. On the procedure: as §1, with “Anti-biotin tetrameric antibody complexes (100 μl) were then added, and the cells incubated for 15 minutes, rotating at 4° C. Following this, 60 μl of colloidal magnetic dextran iron particles was added to the suspension and incubated for 15 minutes, rotating at 4° C. The entire cell suspension was then placed into a column, surrounded by a magnet. The T cells, B cells, RBC, monocytes and macrophages were captured in the column, allowing the neutrophils to pass through by negative selection methods.” left out
Cytokine ELISA. Immunoreactive TNF-α, IL-1β, and MIP-2 were quantified using commercially available ELISA kits (R&D Systems, Minneapolis, Minn.), according to manufacturer's instructions and as described previously by Yum, et al., J Immunol 167:6601 (2001). […]
(In general: An ELISA detects its analyte on a solid surface through an enzyme-linked reagent.)

Consider “RGD: RGD peptide that blocks interactions with integrins”, for which, in the test on integrins, the “increased production of IL-1β, TNF-α, and MIP-2 produced by co-culture of LPS stimulated neutrophils with scuPA” value is “prevented”; the “uPA-induced potentiation of neutrophil responses” value is reported as “blocked”.
As for “ATF: amino terminal fragment of uPA, which contains the uPA GFD and KD”, the “enhancement of LPS-induced cytokine mRNA expression (IL-1β, TNF-α, MIP-2) compared with scuPA” value in test [1] is “to the same extent as did scuPA”.
Take “RGE: RGE peptide that serves as a control”: the “uPA-induced potentiation of neutrophil responses” value with integrins is listed as “not”.

B1: KD: purified kringle domain of uPA (amino acids 47-135), SEQ ID NO:2 epitope (protein)
chain: SKTCYEGNGHFYRGKASTDTMGRPCLPWNSATVLQQTYHAHRSDALQLGLGKHNYCRNPDNRRRPWCYVQVGLKPLVQECMVHDCA
In the case of B1, in test [2], the “neutrophil production (secretion) of IL-1β, TNF-α, and MIP-2” value was “to the same extent as did intact scuPA”. Further, the “enhancement of LPS-induced cytokine mRNA expression (IL-1β, TNF-α, MIP-2) compared with scuPA” value in test [1] is “to the same extent or even a greater extent than did scuPA”.
